Experimental findings from patent US20230286958A1, “PLASMA KALLIKREIN INHIBITORS” (Merck Sharp & Dohme LLC, priority 2020, published 2023) are described below.

Assay [1] deals with human Factor XIa (Homo sapiens (Human), UniProt P03951). Kind of assay: Factor XIa Assay (fluorogenic substrate GPR-AFC). Format: biochemical. As to conditions: Factor XIa (FXIa).
The target in assay [2] is Human plasma kallikrein (Homo sapiens (Human), UniProt P03952). The assay can be described thus: Kallikrein Assay (fluorogenic substrate Acetyl-K-P-R-AFC). The assay is classed as biochemical. As to conditions: Plasma Kallikrein (PKal). A digest of the protocol:
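Ki is derived from IC50 with the Cheng-Prusoff equation, and IC50 from the inflection point of a four-parameter logistic curve. The rate of AFC release is read with 0.5 nM purified enzyme and […] substrate at room temperature or 37 °C.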

What is called IC50 is the concentration at which inhibition is half-maximal.

SMILES strings stand for the structures.

Chain of human Factor XIa (P03951 388-625 limits assumed): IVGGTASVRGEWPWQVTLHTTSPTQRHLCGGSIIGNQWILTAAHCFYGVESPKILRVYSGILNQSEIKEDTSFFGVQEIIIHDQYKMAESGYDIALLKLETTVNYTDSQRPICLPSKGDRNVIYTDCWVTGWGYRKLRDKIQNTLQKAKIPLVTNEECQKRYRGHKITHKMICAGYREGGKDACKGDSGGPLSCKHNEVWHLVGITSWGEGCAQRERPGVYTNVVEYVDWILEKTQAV
Chain of human Factor XIa (P03951 19-387 partner limits assumed): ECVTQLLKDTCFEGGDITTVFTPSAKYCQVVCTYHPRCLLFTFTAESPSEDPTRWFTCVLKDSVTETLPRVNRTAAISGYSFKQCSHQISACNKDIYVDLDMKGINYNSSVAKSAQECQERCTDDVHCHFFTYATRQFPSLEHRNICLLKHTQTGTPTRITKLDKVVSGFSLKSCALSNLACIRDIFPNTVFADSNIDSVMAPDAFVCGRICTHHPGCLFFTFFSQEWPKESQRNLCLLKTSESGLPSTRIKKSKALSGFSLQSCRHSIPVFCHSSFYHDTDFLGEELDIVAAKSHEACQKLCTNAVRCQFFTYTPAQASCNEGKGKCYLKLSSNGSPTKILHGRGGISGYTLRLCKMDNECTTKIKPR
Chain of Human plasma kallikrein (P03952 391-638): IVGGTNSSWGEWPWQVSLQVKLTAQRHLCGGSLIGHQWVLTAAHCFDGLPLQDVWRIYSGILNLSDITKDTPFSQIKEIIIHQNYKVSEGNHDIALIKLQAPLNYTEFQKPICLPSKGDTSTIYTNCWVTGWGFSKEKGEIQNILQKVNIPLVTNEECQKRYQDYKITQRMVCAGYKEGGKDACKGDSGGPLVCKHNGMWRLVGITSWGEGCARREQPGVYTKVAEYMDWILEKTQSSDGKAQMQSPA
Chain of Human plasma kallikrein (P03952 20-390 partner): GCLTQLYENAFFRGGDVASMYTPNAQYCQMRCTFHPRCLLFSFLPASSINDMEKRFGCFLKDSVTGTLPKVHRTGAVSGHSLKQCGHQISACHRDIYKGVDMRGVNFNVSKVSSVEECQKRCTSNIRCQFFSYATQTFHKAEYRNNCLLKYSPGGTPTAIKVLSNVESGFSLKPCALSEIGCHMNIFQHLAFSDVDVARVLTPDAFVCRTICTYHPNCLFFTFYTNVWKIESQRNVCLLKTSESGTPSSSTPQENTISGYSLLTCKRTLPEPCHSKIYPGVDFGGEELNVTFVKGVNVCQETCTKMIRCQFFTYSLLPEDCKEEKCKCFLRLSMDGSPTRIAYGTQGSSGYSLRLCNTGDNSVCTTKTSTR

On to `Cc1ncc(-c2c(C(F)F)ccc(Cl)c2F)nc1C(=O)Nc1cnn(C(C)c2ccc(N3CC4CC4C3=O)nc2)c1` (single isomer, unassigned) [Example 74, 6-(3-Chloro-6-(difluoromethyl)-2-fluorophenyl)-3-methyl-N-(1-((S or R)-1-(6-((1R,5S or 1S,5R)-2-oxo-3-azabicyclo[3.1.0]hexan-3-yl)pyridin-3-yl)ethyl)-1H-pyrazol-4-yl)pyrazine-2-carboxamide], for which the IC50 in assay [1] worked out at 7600 nM; in assay [2], 14.6 nM.
Taken in the same sequence, the figures for `Cc1ncc(-c2c(C(F)F)ccc(Cl)c2F)nc1C(=O)Nc1cnn(C(C)c2ccc(N3CC4CC4C3=O)nc2)c1` (single isomer, unassigned) [Example 75, 6-(3-Chloro-6-(difluoromethyl)-2-fluorophenyl)-3-methyl-N-(1-((R or S)-1-(6-((1R,5S or 1S,5R)-2-oxo-3-azabicyclo[3.1.0]hexan-3-yl)pyridin-3-yl)ethyl)-1H-pyrazol-4-yl)pyrazine-2-carboxamide] were above 10000 nM and 4.8 nM.
In the same order, the values of `Cc1ncc(-c2c(C(F)F)ccc(Cl)c2F)nc1C(=O)Nc1cnn(C(C)c2ccc(N3CC4CC4C3=O)nc2)c1` (single isomer, unassigned) [Example 76, 6-(3-Chloro-6-(difluoromethyl)-2-fluorophenyl)-3-methyl-N-(1-((S or R)-1-(6-((1S,5R or 1R,5S)-2-oxo-3-azabicyclo[3.1.0]hexan-3-yl)pyridin-3-yl)ethyl)-1H-pyrazol-4-yl)pyrazine-2-carboxamide] are above 10000 nM and 43 nM.
`CC(c1cnc(N2C[C@H]3C[C@H]3C2=O)c(C(F)F)c1)n1cc(NC(=O)c2cncc(-c3c(C(F)F)ccc(Cl)c3F)n2)cn1` (single isomer, unassigned) [Example 77, 6-(3-Chloro-6-(difluoromethyl)-2-fluorophenyl)-N-(1-((S or R)-1-(5-(difluoromethyl)-6-((1R,5S)-2-oxo-3-azabicyclo[3.1.0]hexan-3-yl)pyridin-3-yl)ethyl)-1H-pyrazol-4-yl)pyrazine-2-carboxamide]: the IC50 in assay [1] amounted to 7920 nM; in assay [2] it was 12.6 nM.
In the same order, the values of `CC(c1cnc(N2C[C@H]3C[C@H]3C2=O)c(C(F)F)c1)n1cc(NC(=O)c2cncc(-c3c(C(F)F)ccc(Cl)c3F)n2)cn1` (single isomer, unassigned) [Example 78, 6-(3-Chloro-6-(difluoromethyl)-2-fluorophenyl)-N-(1-((R or S)-1-(5-(difluoromethyl)-6-((1R,5S)-2-oxo-3-azabicyclo[3.1.0]hexan-3-yl)pyridin-3-yl)ethyl)-1H-pyrazol-4-yl)pyrazine-2-carboxamide] are above 10000 nM and 2.7 nM.
In the same order, the values of `Cc1nc(N2C[C@H]3C[C@H]3C2=O)ncc1C(C)n1cc(NC(=O)c2nc(-c3c(C(F)F)ccc(Cl)c3F)cc(=O)n2C)cn1` (single isomer, unassigned) [Example 79, 4-(3-Chloro-6-(difluoromethyl)-2-fluorophenyl)-1-methyl-N-(1-((S or R)-1-(4-methyl-2-((1R,5S)-2-oxo-3-azabicyclo[3.1.0]hexan-3-yl)pyrimidin-5-yl)ethyl)-1H-pyrazol-4-yl)-6-oxo-1,6-dihydropyrimidine-2-carboxamide] are 57 nM and 0.5 nM.
Taken in the same sequence, the figures for `Cc1nc(N2C[C@H]3C[C@H]3C2=O)ncc1C(C)n1cc(NC(=O)c2nc(-c3c(C(F)F)ccc(Cl)c3F)cc(=O)n2C)cn1` (single isomer, unassigned) [Example 80, 4-(3-Chloro-6-(difluoromethyl)-2-fluorophenyl)-1-methyl-N-(1-((R or S)-1-(4-methyl-2-((1R,5S)-2-oxo-3-azabicyclo[3.1.0]hexan-3-yl)pyrimidin-5-yl)ethyl)-1H-pyrazol-4-yl)-6-oxo-1,6-dihydropyrimidine-2-carboxamide] were 284 nM and 25.3 nM.
